These results are taken from PMC8000185 (International Journal of Molecular Sciences, 2021).

Bounds are passed on as bounds.

For one data set, the target named is T1, urokinase from human kidney cells (human uPA) (Homo sapiens, UniProt P00749).
T1 construct: low molecular weight active human uPA; purchased Sigma-Aldrich U4010; host or cells: human kidney cells
As to the kind of experiment: uPA inhibition assay (fluorescence-based, purified enzyme). The settings on record: @ 2,500 nM; read-out: uPA inhibition at single concentration (printed in uPA IC50 column). The format is biochemical.
In the case of `N=C(N)NC(=O)c1nc(-c2cc3cc(Cl)ccc3o2)c(N2CCCCCC2)nc1N` [compound 11], the inhibition at 2.5 µM is 49%.

The same data set, now with this note: human uPA, fluorometric method, Figure S1; read-out: uPA IC50 (not reached at the highest concentration tested).
As to `CC(=O)N1CCC(c2ccc(C(=O)NC(=N)N)cc2C(F)(F)F)CC1` [BI-9627, reference compound], the IC50 is greater than 50000 nM.

The same data set, now with this note: purified enzyme, Z-Gly-Gly-Arg-AMC substrate; number in parentheses after value; read-out: uPA IC50.
In the case of `N=C(N)NC(=O)c1nc(Cl)c(N2CCCOCC2)nc1N` [compound 30], the IC50 turned out to be 5720 nM.

On to `N=C(N)NC(=O)c1nc(Cl)c(N2CCOCC2)nc1N` [compound 29], for which the IC50 was 10900 nM.

On to `COc1ncc(-c2nc(C(=O)NC(=N)N)c(N)nc2N2CCCCCC2)cn1` [compound 26], for which the IC50 amounted to 86 nM.

Regarding `N=C(N)NC(=O)c1nc(-c2ccc(C(F)(F)F)cc2)c(N2CCCC2)nc1N` [compound 39], the IC50 was determined as 6190 nM.

Staying with this data set, now noted: uPA over NHE1.
Regarding `COc1ncc(-c2nc(C(=O)NC(=N)N)c(N)nc2N2CCCCCC2)cn1` [compound 26], the uPA selectivity ratio is 143.

In a further data set the target is T2, NHE1 (Homo sapiens, UniProt P19634).
T2 construct: endogenous in cells; host or cells: MDA-MB-231
T2 sequence (P19634 whole entry): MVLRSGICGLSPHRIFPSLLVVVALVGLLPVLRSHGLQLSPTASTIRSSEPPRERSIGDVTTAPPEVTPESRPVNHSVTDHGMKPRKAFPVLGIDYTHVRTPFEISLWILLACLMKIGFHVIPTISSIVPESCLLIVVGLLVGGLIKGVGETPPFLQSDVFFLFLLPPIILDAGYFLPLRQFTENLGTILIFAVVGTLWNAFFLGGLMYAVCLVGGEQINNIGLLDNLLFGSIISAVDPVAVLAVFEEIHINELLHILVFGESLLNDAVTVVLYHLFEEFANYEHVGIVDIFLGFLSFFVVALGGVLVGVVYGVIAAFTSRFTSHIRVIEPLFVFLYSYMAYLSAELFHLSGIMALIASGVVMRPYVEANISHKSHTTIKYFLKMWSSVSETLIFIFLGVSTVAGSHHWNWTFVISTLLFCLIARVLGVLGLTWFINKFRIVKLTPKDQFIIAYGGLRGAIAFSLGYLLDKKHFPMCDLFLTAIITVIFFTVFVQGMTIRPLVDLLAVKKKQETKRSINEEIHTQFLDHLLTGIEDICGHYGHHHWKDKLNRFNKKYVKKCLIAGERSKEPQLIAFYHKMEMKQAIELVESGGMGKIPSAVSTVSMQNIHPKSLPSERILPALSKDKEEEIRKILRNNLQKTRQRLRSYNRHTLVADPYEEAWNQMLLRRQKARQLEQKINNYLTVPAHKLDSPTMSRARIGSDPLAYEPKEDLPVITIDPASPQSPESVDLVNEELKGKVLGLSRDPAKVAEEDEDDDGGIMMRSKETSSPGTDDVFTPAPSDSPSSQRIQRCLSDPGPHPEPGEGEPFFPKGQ
As to the kind of experiment: Plate-based NHE1 inhibition assay (BCECF pHi recovery, 96-well plate reader). The format is cell-based. The settings on record: 1 μM, MDA-MB-231 cells, plate reader. Here is the method:
To perform NHE1 screening with increased throughput, we adapted the conventional cuvette-based NHE1 activity assay to a simple new 96-well plate format using MDA-MB-231 cells that were compatible with common laboratory fluorescence plate readers (see Section 4 for details).
Culture media were removed and replaced with 200 µL 0.2% FBS-containing media with incubation for 3–4 h to stimulate NHE1 activity, followed by incubation for 30 min in the presence of 5 µM 2′,7′-bis(carboxyethyl)-5(6)-carboxyfluorescein-acetoxymethyl ester (BCECF-AM, cat #ab143463, Abcam, Cambridge, United Kingdom). Cells were then washed with 100 µL/well Na^+-free acid-load buffer: 10 mM NH4Cl, 1.8 mM CaCl2, 90 mM N-methyl-D-glucamine (from 1 M stock titrated to pH 7.4 with HCl), 5 mM glucose, 15 mM HEPES, 5 mM KCl, 1 mM MgCl2 (pH 7.5, adjusted with KOH), and incubated at 37 °C for a further 30 min. Acid-load buffer was removed and replaced with Na^+-containing assay buffer: 100 mM NaCl, 1.8 mM CaCl2, 5 mM glucose, 15 mM HEPES, 5 mM KCl, 1 mM MgCl2 containing serial dilution of each compound or DMSO vehicle, and changes in fluorescence were read immediately using a BMG Labtech POLARstar OMEGA (BMG Labtech GmbH, Offenburg, Germany) plate reader according to the parameters in Table S1. Compounds were tested at n = 3 technical replicates per concentration per plate. BCECF-AM-free cells were treated with matched concentrations of each compound to correct for intrinsic fluorescence. DMSO was present in all wells at a final concentration of 1% v/v. Inhibition of NHE1-mediated pHi recovery was determined by ratiometric calculation of the change in blank-corrected pH-sensitive fluorescence divided by the isobestic fluorescence for each well over time. […] (0% activity) controls present on each plate. IC50 values were determined through fitting of Log-10 transformed data using the “log(inhibitor) versus normalised response–variable slope” non-linear function in GraphPad PRISM v8.0 software package (GraphPad Software, San Diego, CA, USA).
Compound `N=C(N)NC(=O)c1nc(Cl)c(N2CCCOCC2)nc1N` [compound 30] displayed an inhibition at 1 µM of 91%.

Take `N=C(N)NC(=O)c1nc(Cl)c(N2CCOCC2)nc1N` [compound 29]: the inhibition at 1 µM came out at 85%.

With `COc1ncc(-c2nc(C(=O)NC(=N)N)c(N)nc2N2CCCCCC2)cn1` [compound 26], the “NHE1 Inhibition (%) 1 μM” value is “no activity” and the inhibition at 1 µM amounted to 0%.

Turning to `N=C(N)NC(=O)c1nc(-c2ccc(C(F)(F)F)cc2)c(N2CCCC2)nc1N` [compound 39], the inhibition at 1 µM turned out to be 95%.

As to `N=C(N)NC(=O)c1nc(-c2cc3cc(Cl)ccc3o2)c(N2CCCCCC2)nc1N` [compound 11], the inhibition at 1 µM amounted to 0%.

The same data set, now with this note: 10 μM, MDA-MB-231 cells, plate reader.
With `N=C(N)NC(=O)c1nc(Cl)c(N2CCCOCC2)nc1N` [compound 30], the inhibition at 10 µM was 100%.

Turning to `N=C(N)NC(=O)c1nc(Cl)c(N2CCOCC2)nc1N` [compound 29], the inhibition at 10 µM was 100%.

`COc1ncc(-c2nc(C(=O)NC(=N)N)c(N)nc2N2CCCCCC2)cn1` [compound 26] displayed an inhibition at 10 µM of 72%.

Compound `N=C(N)NC(=O)c1nc(-c2ccc(C(F)(F)F)cc2)c(N2CCCC2)nc1N` [compound 39] gave an inhibition at 10 µM of 100%.

`N=C(N)NC(=O)c1nc(-c2cc3cc(Cl)ccc3o2)c(N2CCCCCC2)nc1N` [compound 11] came in with an inhibition at 10 µM of 0%.

Still in this data set, the particulars now being: Figure S1 representative curve, n = 3 technical replicates; read-out: NHE1 IC50 of curve shown, plate reader assay.
On to `CC(=O)N1CCC(c2ccc(C(=O)NC(=N)N)cc2C(F)(F)F)CC1` [BI-9627, reference compound], for which the IC50 is 1.4 nM.

The data set is the same for the next values; noted with them: IC50 measurements.
Regarding `COc1ncc(-c2nc(C(=O)NC(=N)N)c(N)nc2N2CCCCCC2)cn1` [compound 26], the “drop in NHE1 potency relative to unsubstituted 24” value was ~ 46 fold.

Still in this data set, the particulars now being: MDA-MB-231 cells, plate-reader assay; read-out: NHE1 Plate reader IC50.
On to `CC(=O)N1CCC(c2ccc(C(=O)NC(=N)N)cc2C(F)(F)F)CC1` [BI-9627, reference compound], for which the IC50 was determined as 3 ± 0.8 nM.

Turning to `N=C(N)NC(=O)c1nc(-c2ccc(C(F)(F)F)cc2)c(N2CCCC2)nc1N` [compound 39], the IC50 was 605 ± 134 nM.

The same data set, now with this note: NHE1 over uPA.
`N=C(N)NC(=O)c1nc(Cl)c(N2CCCOCC2)nc1N` [compound 30]: the “NHE1 selectivity ratio (selectivity over uPA)” value stood at 67 fold.

Regarding `N=C(N)NC(=O)c1nc(Cl)c(N2CCOCC2)nc1N` [compound 29], the “NHE1 selectivity ratio (selectivity over uPA)” value amounted to 85 fold.

The same data set, now with this note: plate-reader value as printed in nM in text; read-out: NHE1 IC50.
As for `N=C(N)NC(=O)c1nc(Cl)c(N2CCCOCC2)nc1N` [compound 30], the IC50 is 85 nM.

Turning to `N=C(N)NC(=O)c1nc(Cl)c(N2CCOCC2)nc1N` [compound 29], the IC50 stood at 129 nM.

As to `COc1ncc(-c2nc(C(=O)NC(=N)N)c(N)nc2N2CCCCCC2)cn1` [compound 26], the IC50 was 12300 nM.

The target in another data set is T2, NHE1. Description: Cuvette-based NHE1 inhibition assay. The format is cell-based. The note with it: Figure S1, n = 6 technical replicates/concentration; read-out: NHE1 IC50, cuvette assay. Here is the method: Performed as described in [53]. Briefly, MDA-MB-231 cells were grown to ~80–90% confluence on glass coverslips. Then, 3 µM BCECF were loaded into cells in 400 µL serum-free medium and the fluorescence was measured using a PTI Deltascan spectrofluorometer (Horiba Ltd., Kyoto, Japan). […] A calibration curve of pHi fluorescence was performed for every sample using nigericin [55]. […] IC50 values were determined through fitting of Log-10 transformed data using the “log(inhibitor) versus normalised response–variable slope” non-linear function in GraphPad PRISM v8.0 software package (GraphPad Software, San Diego, USA).
On to `CC(=O)N1CCC(c2ccc(C(=O)NC(=N)N)cc2C(F)(F)F)CC1` [BI-9627, reference compound], for which the IC50 worked out at 7.5 nM.

The data set is the same for the next values; noted with them: MDA-MB-231 cells, cuvette assay; read-out: NHE1 Cuvette IC50.
For the compound `N=C(N)NC(=O)c1nc(Cl)c(N2CCCOCC2)nc1N` [compound 30], the IC50 turned out to be 93 nM.

For `N=C(N)NC(=O)c1nc(Cl)c(N2CCOCC2)nc1N` [compound 29], the IC50 stood at 166 nM.

On to `COc1ncc(-c2nc(C(=O)NC(=N)N)c(N)nc2N2CCCCCC2)cn1` [compound 26], for which the IC50 came out at 21500 nM.

With `N=C(N)NC(=O)c1nc(-c2ccc(C(F)(F)F)cc2)c(N2CCCC2)nc1N` [compound 39], the IC50 worked out at 441 nM.

System in another data set: not listed separately
Description: Cell viability (cytotoxicity) assay. The format is cell-based. The note with it: human, MDA-MB-231 cells, 48 h treatment. The method, then: On the day of treatment, respective compounds were serially diluted using a semi-logarithmic dilution series from 20 mM stocks in neat DMSO into DMEM-high glucose media (10% v/v FBS) in a separate 96-well plate and under sterile conditions. Thereafter, 10 μL of the diluted compounds at their respective concentrations (n = 4) were added to the cells. […] Vehicle media blanks or drug blanks were also included to correct for inherent colour of the compounds and phenol red-containing media. Following 48 h treatment, 20 μL CellTitre 96® Aqueous One Solution Cell Proliferation Assay (Promega, Madison, USA) was added to each well, plates were incubated for 2 h, and absorbance was measured at 490 nm using a SpectraMax Plus 384-well plate reader (Molecular Devices LLC, San Jose, USA) and Softmax PRO v7.0 software. Blank-corrected data were analysed and graphed using GraphPad PRISM v8.0 software (GraphPad Software, San Diego, CA USA).
Regarding `N=C(N)NC(=O)c1nc(Cl)c(N2CCCOCC2)nc1N` [compound 30], the IC50 at 48 h turned out to be 95600 nM.

As for `N=C(N)NC(=O)c1nc(Cl)c(N2CCOCC2)nc1N` [compound 29], the IC50 at 48 h is greater than 100000 nM.

Consider `COc1ncc(-c2nc(C(=O)NC(=N)N)c(N)nc2N2CCCCCC2)cn1` [compound 26], for which the IC50 at 48 h is greater than 100000 nM.

Turning to `N=C(N)NC(=O)c1nc(-c2ccc(C(F)(F)F)cc2)c(N2CCCC2)nc1N` [compound 39], the IC50 at 48 h was 23900 nM.

Compound `N=C(N)NC(=O)c1nc(-c2cc3cc(Cl)ccc3o2)c(N2CCCCCC2)nc1N` [compound 11] gave an IC50 at 48 h of 26400 nM.

A further data set addresses T3, MDA-MB-231 cell-surface uPA (HMW human active uPA bound to uPAR) (Homo sapiens, UniProt P00749).
T3 construct: pre-incubated with active high molecular weight (HMW) uPA; purchased Molecular Innovations HTC-UPA; host or cells: added to MDA-MB-231 cells (endogenous uPAR)
As to the kind of experiment: Cell-surface uPA activity assay. The format is cell-based. The note with it: average ± SEM from four independent assays. Here is the method:
Having identified non-cytotoxic compounds with the desired target selectivity profiles, we then sought to confirm their uPA inhibitory activities in a more physiologically relevant, whole-cell assay. To this end, the fluorogenic biochemical assay was modified to allow measurement of cell-surface uPA activity in MDA-MB-231 cells, which are known to express uPAR [38, 39]. To maximise enzymatic activity, the cells were pre-incubated with active high molecular weight (HMW) uPA to saturate unoccupied uPAR present at the cell surface.
MDA-MB-231 cells were seeded into Greiner CELLSTAR black 96-well plates (Greiner Bio-one, cat #655079) at density 10,000 cells/well in a volume of 100 µL media and cultured for 48 h. On the day of the experiment, cell culture media were removed via shakeout, followed by washing with 100 µL 1 × Dulbecco’s PBS/1 mM CaCl2/1 mM MgCl2/0.1% protease-free bovine serum albumin/pH 7.4 wash buffer. Cells were then incubated in the presence of 25 nM HMW human active uPA (Molecular Innovations, San Diego, CA, USA, SKU: HTC-UPA) in wash buffer for 30 min at RT. Unbound HMW uPA was removed via washing twice with 100 µL wash buffer. […] Plates were read immediately following the addition of substrate using a POLARstar OMEGA fluorescence plate reader (BMG Labtech GmbH, Offenburg, Germany) according to the parameters in Table S1.
With `COc1ncc(-c2nc(C(=O)NC(=N)N)c(N)nc2N2CCCCCC2)cn1` [compound 26], the IC50 was 149 ± 14 nM.

For a further data set, the system named is NHE1.
Assay: not given
The note with it: read-out: NHE1 IC50 (literature); cited from earlier work.
Consider `CC(=O)N1CCC(c2ccc(C(=O)NC(=N)N)cc2C(F)(F)F)CC1` [BI-9627, reference compound], for which the IC50 was 6 nM.

The subject of a further data set is ENaC.
Assay: not given
The note with it: previously showed; cited from earlier work.
In the case of `COc1ncc(-c2nc(C(=O)NC(=N)N)c(N)nc2N2CCCCCC2)cn1` [compound 26], the “ENaC activity in vitro” value is “no ENaC activity”.

System in a further data set: not given
Assay: not given
The settings on record: previously showed; cited from earlier work.
With `COc1ncc(-c2nc(C(=O)NC(=N)N)c(N)nc2N2CCCCCC2)cn1` [compound 26], the “K+-sparing or diuretic effects in vivo” value is “no K^+-sparing or diuretic effects”.

The test system of the next data set is orthotopic xenograft model of pancreatic ductal adenocaricinoma.
Assay: not given
The settings on record: pancreatic ductal adenocarcinoma; cited from earlier work.
With `COc1ncc(-c2nc(C(=O)NC(=N)N)c(N)nc2N2CCCCCC2)cn1` [compound 26], the anti-metastatic properties result is listed as “anti-metastatic properties”.
